This experiment concerns the target glucagon receptor (Homo sapiens, UniProt P47871). The experiment is described as follows: Functional assay, cAMP synthesis: luciferase reporter in HEK293 cells co-transfected with glucagon receptor.
The mark [1] stands for this setting: EC50 at Glucagon Receptor (20% human plasma), Table 28, 20% human plasma.
Setting [2] is: EC50 at Glucagon Receptor, Table 28.
The mark [3] stands for this setting: Glucagon Receptor EC50, Table 20.
Where [4] appears, read: EC50 at the Glucagon receptor, Table 21.

Square brackets hold non-standard residues; d marks the D form. Side chains are listed from the residue outwards. Peptide text beside a SMILES is read from it. * marks the point of attachment. Palmitoyl = CCCCCCCCCCCCCCCC(=O)*; Aib = CC(C)(N)C(=O)O

This passage reports EC50 results from US8969294B2 (Istituto di Recerche di Biologia Molecolare P. Angeletti …, priority 2008, dated 2015).

As usually defined, the EC50 is the concentration that produces a half-maximal response. Low values mean an effect from little substance, high ones a need for much substance.

Chain of glucagon receptor (P47871 26-477): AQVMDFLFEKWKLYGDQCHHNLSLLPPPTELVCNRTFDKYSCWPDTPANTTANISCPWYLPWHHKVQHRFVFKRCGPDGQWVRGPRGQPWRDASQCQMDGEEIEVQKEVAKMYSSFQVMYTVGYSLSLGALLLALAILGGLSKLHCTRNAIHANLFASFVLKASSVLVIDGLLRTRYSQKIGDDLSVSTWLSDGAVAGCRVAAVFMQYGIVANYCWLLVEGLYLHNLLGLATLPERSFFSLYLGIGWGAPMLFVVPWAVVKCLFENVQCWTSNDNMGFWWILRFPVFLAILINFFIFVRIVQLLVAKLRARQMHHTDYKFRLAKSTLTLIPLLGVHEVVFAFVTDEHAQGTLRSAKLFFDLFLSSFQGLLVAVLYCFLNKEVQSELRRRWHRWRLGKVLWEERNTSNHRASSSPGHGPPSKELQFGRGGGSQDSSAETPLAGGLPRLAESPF
Procedure: Peptide absorbance readings were obtained from UV Absorbance measurements at 280 nm on a Genesys 6 Spectrophotometer (Thermo Electron Corporation). Beer's Law was used to calculate solution concentrations based on the number of tryptophan and tyrosine residues in each analog. At the end of the incubation, 100 μL LucLite luminescence substrate reagent was added to each well, the plate sealed and shaken, and placed into a Wallac Trilux luminescence counter for cAMP detection.
HEK293 cells were co-transfected with the GcgR or GLP-1R cDNAs and a luciferase reporter gene-linked to a cAMP response element (CRE). […] The plate was incubated for 10 min in the dark and light output was quantified on a MicroBeta1450 liquid scintillation counter (Perkin-Elmer, Wellesley, Mass.).

`CCCCCCCCCCCCCCCC(=O)NCCCC[C@H](NC(=O)[C@H](CC(=O)O)NC(=O)[C@H](CO)NC(=O)[C@@H](NC(=O)[C@H](Cc1ccccc1)NC(=O)[C@@H](NC(=O)CNC(=O)[C@H](CCC(N)=O)NC(=O)C(C)(C)NC(=O)[C@@H](N)Cc1c[nH]cn1)[C@@H](C)O)[C@@H](C)O)C(=O)N[C@@H](CO)C(=O)N[C@@H](CCCCN)C(=O)N[C@@H](Cc1ccc(O)cc1)C(=O)N[C@@H](CC(C)C)C(=O)N[C@@H](CC(=O)O)C(=O)NC(C)(C)C(=O)N[C@@H](CCCNC(=N)N)C(=O)N[C@@H](CCCNC(=N)N)C(=O)N[C@@H](C)C(=O)N[C@@H](CCC(N)=O)C(=O)N[C@@H](CC(=O)O)C(=O)N[C@@H](Cc1ccccc1)C(=O)N[C@H](C(=O)N[C@@H](CCC(N)=O)C(=O)N[C@@H](Cc1c[nH]c2ccccc12)C(=O)N[C@@H](CC(C)C)C(=O)N[C@@H](CCSC)C(=O)N[C@@H](CC(N)=O)C(=O)N[C@H](C(=O)N[C@@H](CCCCN)C(N)=O)[C@@H](C)O)C(C)C` displayed an EC50 under setting [1] of 0.313 nM and an EC50 under setting [2] of 0.761 nM. `CCCCCCCCCCCCCCCC(=O)N[C@@H](Cc1c[nH]c2ccccc12)C(=O)NCCCC[C@H](NC(=O)[C@H](CC(=O)O)NC(=O)[C@H](CO)NC(=O)[C@@H](NC(=O)[C@H](Cc1ccccc1)NC(=O)[C@@H](NC(=O)CNC(=O)[C@H](CCC(N)=O)NC(=O)C(C)(C)NC(=O)[C@@H](N)Cc1c[nH]cn1)[C@@H](C)O)[C@@H](C)O)C(=O)N[C@@H](CO)C(=O)N[C@@H](CCCCN)C(=O)N[C@@H](Cc1ccc(O)cc1)C(=O)N[C@@H](CC(C)C)C(=O)N[C@@H](CC(=O)O)C(=O)NC(C)(C)C(=O)N[C@@H](CCCNC(=N)N)C(=O)N[C@@H](CCCNC(=N)N)C(=O)N[C@@H](C)C(=O)N[C@@H](CCC(N)=O)C(=O)N[C@@H](CC(=O)O)C(=O)N[C@@H](Cc1ccccc1)C(=O)N[C@H](C(=O)N[C@@H](CS)C(=O)N[C@@H](Cc1c[nH]c2ccccc12)C(=O)N[C@@H](CC(C)C)C(=O)N[C@@H](CCSC)C(=O)N[C@@H](CC(N)=O)C(=O)N[C@H](C(N)=O)[C@@H](C)O)C(C)C` came in with an EC50 under setting [3] of 0.25 nM. On the same count and under the same terms, the figure for `CCCCCCCCCCCCCCCC(=O)N[C@@H](Cc1c[nH]c2ccccc12)C(=O)NCCCC[C@H](NC(=O)[C@H](CC(=O)O)NC(=O)[C@H](CO)NC(=O)[C@@H](NC(=O)[C@H](Cc1ccccc1)NC(=O)[C@@H](NC(=O)CNC(=O)[C@H](CCC(N)=O)NC(=O)C(C)(C)NC(=O)[C@@H](N)Cc1c[nH]cn1)[C@@H](C)O)[C@@H](C)O)C(=O)N[C@@H](CO)C(=O)N[C@@H](CCCCN)C(=O)N[C@@H](Cc1ccc(O)cc1)C(=O)N[C@@H](CC(C)C)C(=O)N[C@@H](CC(=O)O)C(=O)NC(C)(C)C(=O)N[C@@H](CCCNC(=N)N)C(=O)N[C@@H](CCCNC(=N)N)C(=O)N[C@@H](C)C(=O)NC(C)(C)C(=O)N[C@@H](CC(=O)O)C(=O)N[C@@H](Cc1ccccc1)C(=O)N[C@H](C(=O)N[C@@H](CS)C(=O)N[C@@H](Cc1c[nH]c2ccccc12)C(=O)N[C@@H](CC(C)C)C(=O)N[C@@H](CCSC)C(=O)N[C@@H](CC(N)=O)C(=O)N[C@H](C(N)=O)[C@@H](C)O)C(C)C` (H-H[Aib]QGTFTSDK([Trp-Palmitoyl])SKYLD[Aib]RRA[Aib]DFVCWLMNT-NH2; N-terminus assumed) is 2.06 nM.

In the case of `CCCCCCCCCCCCCC(=O)NCCCC[C@H](NC(=O)[C@H](CC(=O)O)NC(=O)[C@H](CO)NC(=O)[C@@H](NC(=O)[C@H](Cc1ccccc1)NC(=O)[C@@H](NC(=O)CNC(=O)[C@H](CCC(N)=O)NC(=O)C(C)(C)NC(=O)[C@@H](N)Cc1c[nH]cn1)[C@@H](C)O)[C@@H](C)O)C(=O)N[C@@H](CO)C(=O)N[C@@H](CCCCN)C(=O)N[C@@H](Cc1ccc(O)cc1)C(=O)N[C@@H](CC(C)C)C(=O)N[C@@H](CC(=O)O)C(=O)NC(C)(C)C(=O)N[C@@H](CCCNC(=N)N)C(=O)N[C@@H](CCCNC(=N)N)C(=O)N[C@@H](C)C(=O)N[C@@H](CCC(N)=O)C(=O)N[C@@H](CC(=O)O)C(=O)N[C@@H](Cc1ccccc1)C(=O)N[C@H](C(=O)N[C@@H](CCC(N)=O)C(=O)N[C@@H](Cc1c[nH]c2ccccc12)C(=O)N[C@@H](CC(C)C)C(=O)N[C@@H](CCSC)C(=O)N[C@@H](CC(N)=O)C(=O)N[C@H](C(N)=O)[C@@H](C)O)C(C)C` [AIB2, AIB16, K10(C14) Gluc Amide], a half-maximal effect under setting [4] (EC50) was put at 0.044 nM. Consider `CCCCCCCCCCCCCCCC(=O)NCCCC[C@H](NC(=O)[C@H](CC(=O)O)NC(=O)[C@H](CO)NC(=O)[C@@H](NC(=O)[C@H](Cc1ccccc1)NC(=O)[C@@H](NC(=O)CNC(=O)[C@H](CCC(N)=O)NC(=O)C(C)(C)NC(=O)[C@@H](N)Cc1c[nH]cn1)[C@@H](C)O)[C@@H](C)O)C(=O)N[C@@H](CO)C(=O)N[C@@H](CCCCN)C(=O)N[C@@H](Cc1ccc(O)cc1)C(=O)N[C@@H](CC(C)C)C(=O)N[C@@H](CC(=O)O)C(=O)NC(C)(C)C(=O)N[C@@H](CCCNC(=N)N)C(=O)N[C@@H](CCCNC(=N)N)C(=O)N[C@@H](C)C(=O)N[C@@H](CCC(N)=O)C(=O)N[C@@H](CC(=O)O)C(=O)N[C@@H](Cc1ccccc1)C(=O)N[C@H](C(=O)N[C@@H](CCC(N)=O)C(=O)N[C@@H](Cc1c[nH]c2ccccc12)C(=O)N[C@@H](CC(C)C)C(=O)N[C@@H](CCSC)C(=O)N[C@@H](CC(N)=O)C(=O)N[C@H](C(N)=O)[C@@H](C)O)C(C)C` [AIB2, AIB16, K10(C16) Gluc Amide], for which the EC50 was determined as 0.023 nM under setting [1], 0.052 nM under setting [2] and 0.02 nM under setting [4].

`CCCCCCCCCCCCCCCCCC(=O)NCCCC[C@H](NC(=O)[C@H](CC(=O)O)NC(=O)[C@H](CO)NC(=O)[C@@H](NC(=O)[C@H](Cc1ccccc1)NC(=O)[C@@H](NC(=O)CNC(=O)[C@H](CCC(N)=O)NC(=O)C(C)(C)NC(=O)[C@@H](N)Cc1c[nH]cn1)[C@@H](C)O)[C@@H](C)O)C(=O)N[C@@H](CO)C(=O)N[C@@H](CCCCN)C(=O)N[C@@H](Cc1ccc(O)cc1)C(=O)N[C@@H](CC(C)C)C(=O)N[C@@H](CC(=O)O)C(=O)NC(C)(C)C(=O)N[C@@H](CCCNC(=N)N)C(=O)N[C@@H](CCCNC(=N)N)C(=O)N[C@@H](C)C(=O)N[C@@H](CCC(N)=O)C(=O)N[C@@H](CC(=O)O)C(=O)N[C@@H](Cc1ccccc1)C(=O)N[C@H](C(=O)N[C@@H](CCC(N)=O)C(=O)N[C@@H](Cc1c[nH]c2ccccc12)C(=O)N[C@@H](CC(C)C)C(=O)N[C@@H](CCSC)C(=O)N[C@@H](CC(N)=O)C(=O)N[C@H](C(N)=O)[C@@H](C)O)C(C)C` [AIB2, AIB16, K10(C18) Gluc Amide] yielded an EC50 under setting [4] of 0.016 nM. As for `CCCCCCCCCCCCCCCC(=O)NCCCC[C@H](NC(=O)[C@H](CC(=O)O)NC(=O)[C@H](CO)NC(=O)[C@@H](NC(=O)[C@H](Cc1ccccc1)NC(=O)[C@@H](NC(=O)CNC(=O)[C@H](CCC(N)=O)NC(=O)[C@H](CO)NC(=O)[C@@H](N)Cc1c[nH]cn1)[C@@H](C)O)[C@@H](C)O)C(=O)N[C@@H](CO)C(=O)N[C@@H](CCCCN)C(=O)N[C@@H](Cc1ccc(O)cc1)C(=O)N[C@@H](CC(C)C)C(=O)N[C@@H](CC(=O)O)C(=O)N[C@@H](CCC(=O)O)C(=O)N[C@@H](CCCNC(=N)N)C(=O)N[C@@H](CCCNC(=N)N)C(=O)N[C@@H](C)C(=O)N[C@@H](CCCCN)C(=O)N[C@@H](CC(=O)O)C(=O)N[C@@H](Cc1ccccc1)C(=O)N[C@H](C(=O)N[C@@H](CCC(N)=O)C(=O)N[C@@H](Cc1c[nH]c2ccccc12)C(=O)N[C@@H](CC(C)C)C(=O)N[C@@H](CCSC)C(=O)N[C@@H](CC(N)=O)C(=O)N[C@H](C(N)=O)[C@@H](C)O)C(C)C` [E16 K20-glucagon-NH2 with K^10—C16], the EC50 was found to be 0.4 nM (EC50, Glucagon Receptor, Table 13) and 0.236 nM (EC50 at Glucagon Receptor, Table 17).
